# Measurements: paper PMC4006692 (Journal of biomolecular screening, 2013)
# What was measured:
# HIV-1 Nef dimerization = HIV-1 Nef dimerization (Human immunodeficiency virus type 1 group M subtype B, UniProt P03407); settings: up to a final DMSO concentration of 2.5%
# 293T cells = settings: final DMSO concentration
# HIV-1 Nef dimerization, sequence (P03407 2-210): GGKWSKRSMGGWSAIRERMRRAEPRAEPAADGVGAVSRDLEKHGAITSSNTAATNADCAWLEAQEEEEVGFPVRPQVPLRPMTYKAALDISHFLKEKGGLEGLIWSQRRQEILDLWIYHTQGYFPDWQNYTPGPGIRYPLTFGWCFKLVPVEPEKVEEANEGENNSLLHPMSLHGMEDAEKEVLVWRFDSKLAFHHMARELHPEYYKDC
smiles,measurement,setting,value
C[S+](C)[O-] [DMSO],BiFC/mRFP ratio of WT2A,HIV-1 Nef dimerization,essentially unchanged
same,IC50 of cell loss (cell density),293T cells,approximately 1%
same,concentration causing cell loss,293T cells,above 0.6%
